Peptide text beside a SMILES is read from it. * marks the point of attachment. X1 = O=C(O)[C@H]1CSC(c2nc3ccc(N*)cc3s2)=N1

Data set [1] can be described thus: Biodistribution of SKLQ-aminoluciferin by BLI in L2G85 mice. Format: in vivo. The source says: PSA is a chymotrypsin-like enzyme which specifically cleaves the C-terminus of glutamine (Q) in the peptide sequence, SKLQ-aminoluciferin. Prodrugs have been used to take advantage of this specificity of PSA. […] Where the peptides or prodrugs are encapsulated with polymer, the current shortcomings in delivery of tumor-specific peptides is overcome. The peptides or drugs can be encapsulated with a protective polymer coating, and the payload released in the vascularized tumor regions. This approach prevents non-specific distribution of the drug and ensures stability of the peptide/drug, and utilizes the active proteases that are specific to a disease state to activate a prodrug at the region of interest.
The strategies developed for these studies are utilized in the study of biodistribution of luciferin nanoparticles. The nanoparticles are also tested using a xenograft model of prostate cancer. Appropriate cell lines have been developed for conducting experiments to study human prostate cancer models in animals. […] Both LNCaP and PC3M cells have successfully been implanted into SCID mice, and their growth kinetics have been successfully quantified using BLI. Luciferase present in the cells is used as the read out for delivery of luciferin and can also be used as for assessing tumor burden when we transition to testing chemotherapeutic agents. […]

Data set [2] is described as follows: DPPH radical scavenger assay of antioxidative activity before and after SAS processing. The class given is biochemical. To be noted: maximum UV absorbance before and after addition of quercetin. The source says:
The antioxidative activity of quercetin has not been diminished by this supercritical fluid process for nanoparticle formation. A radical scavenger DPPH (2,2,-diphenyl-1-picrylhydrazyl) was used to measure the EC50 value of DPPH at maximum UV absorbance before and after addition of quercetin.
Quercetin. Quercetin has been encapsulated with PLA (MW 50,000 and 100,000) using the following process parameters: T=40 C, P=100 bar, CO2 flow rate 50 g/min, 5:100 quercetin:polymer ratio using methanol as the cosolvent. Results can be seen in FIGS. 4A-4C. […] A radical scavenger DPPH (2,2,-diphenyl-1-picrylhydrazyl) was used to measure the EC50 value of DPPH at maximum UV absorbance before and after addition of quercetin.
For orientation: DPPH is a stable violet radical that fades when it is reduced.

As to `CC(C)C[C@H](NC(=O)[C@H](CCCCN)NC(=O)[C@@H](N)CO)C(=O)N[C@@H](CCC(N)=O)C(=O)Nc1ccc2nc(C3=N[C@@H](C(=O)O)CS3)sc2c1` [SKLQ-aminoluciferin] (H-SKLQ-X1; N-terminus and C-terminus assumed), the “distribution in the animal” value in data set [1] (L2G85 mice) was “distributed non-specifically throughout the animal”. Further, in data set [1] (in vivo, acted upon by various enzymes), the “stability in the body” value was “unstable in the body”.
In the case of `O=c1c(O)c(-c2ccc(O)c(O)c2)oc2cc(O)cc(O)c12` [quercetin], the “EC50 value of DPPH, before vs after SAS processing” value in data set [2] is “the same before and after SAS processing”.

The record behind these values is US20080095856A1, “Encapsulated Nanoparticles for Drug Delivery” (priority 2006, published 2008).
